In patent US20220305121A1, “N-ARYL SULFONAMIDE DERIVATIVES AS VACCINE ADJUVANT” (The Regents of the University of California, priority 2019, published 2022):

Experiments:
Format in all cases: cell-based
NF-κB = assay: Measurement of NF-κB activation using THP1-Blue NF-κB cells (SEAP reporter, LPS as primary stimulus); conditions: compound 5 μM + LPS, 20 hour incubation; two point normalized: compound 1 + LPS = 200%, LPS = 100%; mean
Procedure: THP1-Blue™ NF-κB cells were plated in 96-well plates at 10^5 cells/well in 100 μl RPMI supplemented with 10% fetal bovine serum (FBS, Omega Scientific, Inc., Tarzana, Calif.), 100 U/mL penicillin, 100 μg/ml streptomycin (Thermo Fisher Scientific) and Normocin (Invivogen). LPS was prepared in assay medium at a concentration of 20 μg/mL. Tested compounds were dissolved in DMSO at 1 mM as a stock solution and were further diluted in the LPS solution to a final concentration of 10 μM. 100 μL of this solution was then transferred to the plated cells to obtain a final concentration of LPS at 10 μg/mL and compound at 5 μM ([…]). The culture supernatants were harvested after a 20 hour incubation period, SEAP activity in the culture supernatants was determined by a colorimetric assay using QuantiBlue (Invivogen). Plate absorbance was read at 630 nm using a Tecan Infinite M200 plate reader (Männedorf, Switzerland). The SEAP concentration was directly proportional to NF-κB activity, which was 2-point normalized to yield activity of compound 1+LPS as 200% and activity for LPS as 100%.
Measurement of NF-κB Activation Using THP1-Blue NF-κB Cells. THP1-Blue NF-κB cells were plated in 96-well plates at 10^5 cells/well in 100 μL of RPMI supplemented with 10% fetal bovine serum (FBS, Omega Scientific, Inc., Tarzana, Calif.), 100 U/mL penicillin, 100 μg/mL streptomycin (Thermo Fisher Scientific), and Normocin (Invivogen). LPS was prepared in assay medium at a concentration of 20 μg/mL. Tested compounds were dissolved in DMSO at 1 mM as a stock solution and were further diluted in the LPS solution to a final concentration of 10 μM. 100 μL of this solution was then transferred to the plated cells to obtain a final concentration of LPS at 10 μg/mL and compound at 5 μM ([…]). The culture supernatants were harvested after a 20 hours incubation period. SEAP activity in the culture supernatants was determined by a colorimetric assay using QuantiBlue (Invivogen). Plate absorbance was read at 630 nm using a Tecan Infinite M200 plate reader (Mannedorf, Switzerland). The SEAP concentration was directly proportional to NF-κB activity, which was two-point normalized to yield activity of compound 1+LPS as 200% and activity for LPS as 100%.

ISRE = assay: Measurement of ISRE activity in ISRE-bla THP-1 cells (FRET, IFN-α as primary stimulus); conditions: compound 5 μM + IFN-α 100 U/mL, 16 hours, two point normalized: compound 1 + IFN-α = 200%, IFN-α = 100%, mean; for activity at 5 µM: Homo sapiens, THP-1, read-out: ISRE % Activation
Procedure: ISRE-bla THP-1 cells were plated in 96-well plates at 5×10^4 cells/well in 50 μl RPMI supplemented with 10% dialyzed FBS (Atlanta Biologicals, Inc., GA), 0.1 mM nonessential amino acids, 1 mM sodium pyruvate, 100 U/mL penicillin and 100 μg/ml streptomycin. Type I IFN-α (R&D Systems, #11200-2) solution was prepared in assay medium at a concentration of 200 U/mL Tested compounds were dissolved in DMSO at 1 mM and were further diluted in the IFN-α solution to a final concentration of 10 μM. 50 μL of this solution was then transferred to the plated cells to obtain a final concentration of IFN-α at 100 U/mL and compound at 5 μM ([…]), The cells were incubated for 16 hours, after which 20 μL of 6×LiveBLAzer™ FRET B/G Substrate (CCF4-AM) mixture (prepared according to the manufacturer's instructions) was added to each well, Plates were incubated at room temperature in the dark for 3 hours. Fluorescence was measured on a Tecan Infinite M200 plate reader at an excitation wavelength of 405 nm, and emission wavelengths of 465 nm and 535 nm. Background values (cell free wells at the same fluorescence wavelength) were subtracted from the raw fluorescence intensity values and the emission ratios were calculated as the ratio of background subtracted fluorescence intensities at 465 nm to background subtracted fluorescence intensities at 535 nm. The ISRE activity values for these compounds were 2-point normalized to yield activity of compound 1+IFN-α as 200% and activity for IFN-α as 100%.
Measurement of ISRE Activity in ISRE-bla THP-1 Cells. ISREbla THP-1 cells were plated in 96-well plates at 5×10^4 cells/well in 50 μL of RPMI supplemented with 10% dialyzed FBS (Atlanta Biologicals, Inc., GA), 0.1 mM nonessential amino acids, 1 mM sodium pyruvate, 100 U/mL penicillin, and 100 μg/mL streptomycin. Type I IFN-α (R&D Systems, no. 11200-2) solution was prepared in assay medium at a concentration of 200 U/mL. Tested compounds were dissolved in DMSO at 1 mM and were further diluted in the IFN-α solution to a final concentration of 10 μM. 50 μL of this solution was then transferred to the plated cells to obtain a final concentration of IFN-α at 100 U/mL and compound at 5 μM ([…]). The cells were incubated for 16 hours, after which 20 μL of 6×LiveBLAzer FRET B/G substrate (CCF4-AM) mixture (prepared according to the manufacturer's instructions) was added to each well. Plates were incubated at room temperature in the dark for 3 hours. Fluorescence was measured on a Tecan Infinite M200 plate reader at an excitation wavelength of 405 nm and emission wavelengths of 465 and 535 nm. Background values (cell free wells at the same fluorescence wavelength) were subtracted from the raw fluorescence intensity values and the emission ratios were calculated as the ratio of background subtracted fluorescence intensities at 465 nm to background subtracted fluorescence intensities at 535 nm. The ISRE activity values for these compounds were two-point normalized to yield activity of compound 1+IFN-α as 200% and activity for IFN-α as 100%.

THP-1 cells = assay: Cell viability assay (MTT); conditions: compound 5 μM, 18 hours incubation; normalized to DMSO as 100%; mean
Procedure: THP-1 cells were plated in 96-well plates (10^5 cells/well) in 100 μL RPMI supplemented with 10% FBS, 100 U/mL penicillin and 100 μg/ml streptomycin. Compounds were dissolved in DMSO at 1 mM stock solution and were further diluted to 10 μM in the assay medium. 100 μL of this solution was added to the cells to obtain a final compound concentration of 5 μM ([…]). After 18 hours incubation, a solution of MTT in assay media (0.5 mg/mL) was added to each well and further incubated for 4 to 6 hours, followed by addition of cell lysis buffer (15% w/v SDS and 0.12% v/v 12N HCl aqueous solution), incubated overnight, and then absorbance measured at 570 nm using 650 nm as reference using Tecan Infinite M200 plate reader.
Cell Viability Assay. THP-1 cells were plated in 96-well plates (10^5 cells/well) in 100 μL RPMI supplemented with 10% FBS, 100 U/mL penicillin, and 100 μg/mL streptomycin. Compounds were dissolved in DMSO at 1 mM stock solution and were further diluted to 10 μM in the assay medium. 100 μL of this solution was added to the cells to obtain a final compound concentration of 5 μM ([…]). After 18 h incubation, a solution of MTT in assay media (0.5 mg/mL) was added to each well and further incubated for 4-6 hours, followed by addition of cell lysis buffer (15% w/v SDS and 0.12% v/v 12 N HCl aqueous solution), incubation overnight, and then absorbance was measured at 570 nm using 650 nm as reference using Tecan Infinite M200 plate reader.

Row | Structure (SMILES) | activity at 5 µM (NF-κB) [%] | activity at 5 µM (ISRE) [%] | MTT % Viability (THP-1 cells) [%] | NF-κB % Activation (NF-κB) [%] | ISRE % Activation (ISRE) [%]
1 | CCCCCCCCCCCCN(c1cc(OC)c(Cl)cc1OC)S(=O)(=O)c1ccc(OCC)cc1 [Compound 39, N-(4-chloro-2,5-dimethoxyphenyl)-4-ethoxy-N-dodecylbenzenesulfonamide] | 97 | 100 | 93.0 | – | –
2 | COc1cc(NS(=O)(=O)c2ccc(CNC(=O)OC(C)(C)C)cc2)c(OC)cc1Cl [Compound 20, tert-butyl (4-(N-(4-chloro-2,5-dimethoxyphenyl)sulfamoyl)benzyl) carbamate] | – | – | 109.2 | 100 | 101
3 | CCCCCN(c1cc(OC)c(Cl)cc1OC)S(=O)(=O)c1ccc(OCC)cc1 [Compound 36, N-(4-chloro-2,5-dimethoxyphenyl)-4-ethoxy-N-pentylbenzenesulfonamide] | 135 | 105 | 72.9 | – | –
4 | CCOc1ccc(S(=O)(=O)Nc2cc(OC)c([N+](=O)[O-])cc2OC)cc1 [Compound 9, N-(2,5-dimethoxy-4-nitrophenyl)-4-ethoxybenzenesulfonamide] | 133 | 110 | 79.2 | – | –
5 | C#CCN(c1cc(OC)c(Cl)cc1OC)S(=O)(=O)c1ccc(OCC)cc1 [Compound 42, N-(4-chloro-2,5-dimethoxyphenyl)-4-ethoxy-N-(prop-2-yn-1-yl) benzenesulfonamide] | – | – | 72.0 | 232 | 213
6 | COc1cc(NS(=O)(=O)c2ccc(CN)cc2)c(OC)cc1Cl [Compound 21, 4-(aminomethyl)-N-(4-chloro-2,5-dimethoxyphenyl)benzenesulfonamide] | 103 | 111 | 97.0 | – | –
7 | CCCCOc1ccc(S(=O)(=O)Nc2cc(OC)c(Cl)cc2OC)cc1 [Compound 14, 4-Butoxy-N-(4-chloro-2,5-dimethoxyphenyl)benzenesulfonamide] | 101 | 106 | 95.3 | – | –
8 | COC(=O)c1ccc(S(=O)(=O)Nc2cc(OC)c(Cl)cc2OC)cc1 [Compound 26, Methyl 4-(N-(4-chloro-2,5-dimethoxyphenyl)sulfamoyl)benzoate] | 191 | 202 | 74.4 | – | –
9 | CCOc1ccc(S(=O)(=O)N(CCCC(=O)O)c2cc(OC)c(Cl)cc2OC)cc1 [Compound 53, 4-((N-(4-chloro-2,5-dimethoxyphenyl)-4-ethoxyphenyl)sulfonamido)butanoic acid] | 230 | 151 | 73.4 | – | –
10 | CCOc1ccc(S(=O)(=O)Nc2cc(OC)c(N)cc2OC)cc1 [Compound 10, N-(4-amino-2,5-dimethoxyphenyl)-4-ethoxybenzenesulfonamide] | 101 | 102 | 92.2 | – | –
11 | CCOC(=O)CCCN(c1cc(OC)c(Cl)cc1OC)S(=O)(=O)c1ccc(OCC)cc1 [Compound 50, Ethyl 4-((N-(4-chloro-2,5-dimethoxyphenyl)-4-ethoxyphenyl)sulfonamido)butanoate] | 199 | 199 | 80.1 | – | –
12 | C#CCCCN(c1cc(OC)c(Cl)cc1OC)S(=O)(=O)c1ccc(OCC)cc1 [Compound 44, N-(4-chloro-2,5-dimethoxyphenyl)-4-ethoxy-N-(pent-4-yn-1-yl) benzenesulfonamide] | – | – | 70.7 | 182 | 184
13 | CCCN(c1cc(OC)c(Cl)cc1OC)S(=O)(=O)c1ccc(OCC)cc1 [Compound 34, N-(4-chloro-2,5-dimethoxyphenyl)-4-ethoxy-N-propylbenzenesulfonamide] | 227 | 199 | 71.6 | – | –
14 | C#CCCN(c1cc(OC)c(Cl)cc1OC)S(=O)(=O)c1ccc(OCC)cc1 [Compound 43, N-(but-3-yn-1-yl)-N-(4-chloro-2,5-dimethoxyphenyl)-4-ethoxybenzenesulfonamide] | 206 | 201 | 70.1 | – | –
15 | COc1cc(NS(=O)(=O)c2ccc(N)cc2)c(OC)cc1Cl [Compound 18, 4-Amino-N-(4-chloro-2,5-dimethoxyphenyl)benzenesulfonamide] | 101 | 103 | 96.0 | – | –
16 | CCOc1ccc(S(=O)(=O)N(CCCN)c2cc(OC)c(N=[N+]=[N-])cc2OC)cc1 [Compound 63, N-(3-aminopropyl)-N-(4-azido-2,5-dimethoxyphenyl)-4-ethoxybenzenesulfonamide] | – | – | 68.9 | – | –
